In paper PMC10010643 (Cancer Chemotherapy and Pharmacology, 2023):

Experiment: Safety and tolerability, Part A single ascending-dose phase in healthy participants
Format: in vivo, human
Method: A further two cohorts were recruited. […] Each individual participated in one treatment period only, with the exception of the food-effect cohort (cohort A3) in which there were two treatment periods separated by at least 7 days washout. Participants resided at the Clinical Research Unit (CRU) from 1 day ahead of dosing (day − 1) to day 3 and returned for a follow-up visit 5–7 days after their final dose. For all cohorts, doses were administered in the fasted state in the morning of day 1 of Treatment Period 1. In the food-effect cohort, doses were given 30 min after the start of a high-fat breakfast (973 calories total: approximately 150 protein calories, 250 carbohydrate calories, and 500–600 fat calories) on day 1 of Treatment Period 2. For cohorts A1 to A5 in Treatment Period 1, dosing occurred such that one pair (one active and one placebo) were dosed at least 24 h before the remaining participants. Continuation to dose those who remained was at the investigator’s discretion. Escalating doses were administered following satisfactory sponsor and investigator review of the safety and tolerability data (up to 48 h post-final dose) and PK data (up to 24 h post-final dose) from the lower dose levels.
Safety and tolerability assessments included adverse event (AE) monitoring, physical examinations, laboratory assessments (hematology, clinical chemistry, and urinalysis), vital signs (blood pressure, pulse rate, and body temperature) and ECG.
No formal statistical assessment was performed for the safety analysis.

[1] = Part A 50 mg (1 x 50 mg), fasted

OC[C@H]1O[C@H](Sc2cncc(Br)c2)[C@H](O)[C@@H](n2cc(-c3cc(F)c(F)c(F)c3)nn2)[C@H]1O [GB1211]
Effect of food intake or capsule formulation on TEAEs (Part A): no effect
Participants with a TEAE possibly related to treatment, GB1211 (Part A): 3
Treatment- or dose-related trend in TEAEs (Part A): no apparent treatment- or dose-related trend
TEAE Back pain, no. of AEs (Part A 5 mg, fasted): 1
TEAE Back pain, participants (Part A 5 mg, fasted): 1 (16.7%) n (%)
TEAE Constipation, participants (Part A 5 mg, fasted): 0 n (%)
TEAE Cough, participants (Part A 5 mg, fasted): 0 n (%)
TEAE Decreased appetite, participants (Part A 5 mg, fasted): 0 n (%)
TEAE Diarrhea, no. of AEs (Part A 5 mg, fasted): 1
TEAE Diarrhea, participants (Part A 5 mg, fasted): 1 (16.7%) n (%)
TEAE Dry mouth, participants (Part A 5 mg, fasted): 0 n (%)
TEAE Dry skin, participants (Part A 5 mg, fasted): 0 n (%)
TEAE Dyspepsia, participants (Part A 5 mg, fasted): 0 n (%)
TEAE Gastrointestinal disorders, no. of AEs (Part A 5 mg, fasted): 1
TEAE Gastrointestinal disorders, participants (Part A 5 mg, fasted): 1 (16.7%) n (%)
TEAE General disorders and administration site conditions, no. of AEs (Part A 5 mg, fasted): 1
TEAE General disorders and administration site conditions, participants (Part A 5 mg, fasted): 1 (16.7%) n (%)
TEAE Headache, participants (Part A 5 mg, fasted): 0 n (%)
TEAE Infections and infestations, no. of AEs (Part A 5 mg, fasted): 1
TEAE Infections and infestations, participants (Part A 5 mg, fasted): 1 (16.7%) n (%)
TEAE Injury, poisoning and procedural complications, participants (Part A 5 mg, fasted): 0 n (%)
TEAE Medical device site reaction, no. of AEs (Part A 5 mg, fasted): 1
TEAE Medical device site reaction, participants (Part A 5 mg, fasted): 1 (16.7%) n (%)
TEAE Metabolism and nutrition disorders, participants (Part A 5 mg, fasted): 0 n (%)
TEAE Musculoskeletal and connective tissue disorders, no. of AEs (Part A 5 mg, fasted): 1
TEAE Musculoskeletal and connective tissue disorders, participants (Part A 5 mg, fasted): 1 (16.7%) n (%)
TEAE Nasopharyngitis, no. of AEs (Part A 5 mg, fasted): 1
TEAE Nasopharyngitis, participants (Part A 5 mg, fasted): 1 (16.7%) n (%)
TEAE Nervous system disorders, participants (Part A 5 mg, fasted): 0 n (%)
TEAE Pain, participants (Part A 5 mg, fasted): 0 n (%)
TEAE Rash, participants (Part A 5 mg, fasted): 0 n (%)
TEAE Respiratory, thoracic and mediastinal disorders, participants (Part A 5 mg, fasted): 0 n (%)
TEAE Skin and subcutaneous tissue disorders, participants (Part A 5 mg, fasted): 0 n (%)
TEAE Wound, participants (Part A 5 mg, fasted): 0 n (%)
TEAE Back pain, participants (Part A 20 mg, fasted): 0 n (%)
TEAE Constipation, participants (Part A 20 mg, fasted): 0 n (%)
TEAE Cough, participants (Part A 20 mg, fasted): 0 n (%)
TEAE Decreased appetite, participants (Part A 20 mg, fasted): 0 n (%)
TEAE Diarrhea, participants (Part A 20 mg, fasted): 0 n (%)
TEAE Dry mouth, participants (Part A 20 mg, fasted): 0 n (%)
TEAE Dry skin, participants (Part A 20 mg, fasted): 0 n (%)
TEAE Dyspepsia, participants (Part A 20 mg, fasted): 0 n (%)
TEAE Gastrointestinal disorders, participants (Part A 20 mg, fasted): 0 n (%)
TEAE General disorders and administration site conditions, no. of AEs (Part A 20 mg, fasted): 1
TEAE General disorders and administration site conditions, participants (Part A 20 mg, fasted): 1 (16.7%) n (%)
TEAE Headache, participants (Part A 20 mg, fasted): 0 n (%)
TEAE Infections and infestations, participants (Part A 20 mg, fasted): 0 n (%)
TEAE Injury, poisoning and procedural complications, participants (Part A 20 mg, fasted): 0 n (%)
TEAE Medical device site reaction, participants (Part A 20 mg, fasted): 0 n (%)
TEAE Metabolism and nutrition disorders, participants (Part A 20 mg, fasted): 0 n (%)
TEAE Musculoskeletal and connective tissue disorders, participants (Part A 20 mg, fasted): 0 n (%)
TEAE Nasopharyngitis, participants (Part A 20 mg, fasted): 0 n (%)
TEAE Nervous system disorders, participants (Part A 20 mg, fasted): 0 n (%)
TEAE Pain, no. of AEs (Part A 20 mg, fasted): 1
TEAE Pain, participants (Part A 20 mg, fasted): 1 (16.7%) n (%)
TEAE Rash, participants (Part A 20 mg, fasted): 0 n (%)
TEAE Respiratory, thoracic and mediastinal disorders, participants (Part A 20 mg, fasted): 0 n (%)
TEAE Skin and subcutaneous tissue disorders, participants (Part A 20 mg, fasted): 0 n (%)
TEAE Wound, participants (Part A 20 mg, fasted): 0 n (%)
TEAE Back pain, participants [1]: 0 n (%)
TEAE Constipation, participants [1]: 0 n (%)
TEAE Cough, no. of AEs [1]: 1
TEAE Cough, participants [1]: 1 (16.7%) n (%)
TEAE Decreased appetite, participants [1]: 0 n (%)
TEAE Diarrhea, participants [1]: 0 n (%)
TEAE Dry mouth, participants [1]: 0 n (%)
TEAE Dry skin, participants [1]: 0 n (%)
TEAE Dyspepsia, participants [1]: 0 n (%)
TEAE Gastrointestinal disorders, participants [1]: 0 n (%)
TEAE General disorders and administration site conditions, participants [1]: 0 n (%)
TEAE Headache, participants [1]: 0 n (%)
TEAE Infections and infestations, participants [1]: 0 n (%)
TEAE Injury, poisoning and procedural complications, participants [1]: 0 n (%)
TEAE Medical device site reaction, participants [1]: 0 n (%)
TEAE Metabolism and nutrition disorders, participants [1]: 0 n (%)
TEAE Musculoskeletal and connective tissue disorders, participants [1]: 0 n (%)
TEAE Nasopharyngitis, participants [1]: 0 n (%)
TEAE Nervous system disorders, participants [1]: 0 n (%)
